Values joined by “and” are separate entries in the source; they are usually repeats but may differ in a detail not shown here. Identical values can stand only once.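 Cells were grown in 96-well plates and exposed to each compound for 48 hours at five concentrations; endpoints were interpolated linearly between bracketing concentrations, or set to the highest concentration if not reached. The concentration for 50% growth inhibition is given as GI50. Definition used: TGI = concentration required for complete inhibition of growth.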
Legend:
Experiment in all cases: DTP human tumour cell line panel, 48 h
CAKI-1 renal = test system: CAKI-1 renal
NCI/ADR-RES ovarian = test system: NCI/ADR-RES ovarian
NCI-H460 lung = test system: NCI-H460 lung
HCC-2998 colon = test system: HCC-2998 colon
HCT-15 colon = test system: HCT-15 colon
LOX IMVI melanoma = test system: LOX IMVI melanoma
SK-MEL-2 melanoma = test system: SK-MEL-2 melanoma
TK-10 renal = test system: TK-10 renal
SR leukemia = test system: SR leukemia
HCT-116 colon = test system: HCT-116 colon

SMILES | GI50 (CAKI-1 renal) [µM] | TGI (CAKI-1 renal) [µM] | GI50 (NCI/ADR-RES ovarian) | TGI (NCI/ADR-RES ovarian) [µM] | GI50 (NCI-H460 lung) [µM] | TGI (NCI-H460 lung) [µM] | GI50 (HCC-2998 colon) [µM] | TGI (HCC-2998 colon) | GI50 (HCT-15 colon) | TGI (HCT-15 colon) [µM] | GI50 (LOX IMVI melanoma) [µM] | TGI (LOX IMVI melanoma) [µM] | GI50 (SK-MEL-2 melanoma) [µM] | TGI (SK-MEL-2 melanoma) | GI50 (TK-10 renal) | TGI (TK-10 renal) [µM] | GI50 (SR leukemia) | TGI (SR leukemia) [µM] | TGI (HCT-116 colon) [µM] | GI50 (HCT-116 colon)
COc1cc(-c2cc3ncccc3c3nc(N)c4cccnc4c23)cc(OC)c1OC | 0.4 | 22.6 | 0.492 µM | 23.4 | 0.408 | 16.8 | 1.66 | > 100 µM | 0.44 µM | 61.9 | 0.482 | 15.7 | 0.533 | 8.86 µM | 1.15 µM | 9.29 | 0.124 µM | 4.97 |  | 
CC(C)=CCc1c(OC(=O)c2c(C)cc(O)cc2O)cc(CO)c(CO)c1O |  | 20.5 |  | 85.6 |  | 39.2 |  | 31.7 µM |  | 34.6 |  | 40.9 |  | 59.5 µM |  | 77.9 |  | 94.5 | 43.9 | 
COc1cccc(-c2cc(=O)c3cc(OC)ccc3[nH]2)c1 | 0.0319 | > 100 |  | 0.445 | 0.0823 | > 100 | 0.118 | 2.59 µM and 0.443 µM | 0.0485 µM |  | 0.0624 |  | 0.0774 | 7.11 µM and 20.2 µM |  | 84.9 |  | 0.664 | 22.6 | 0.0541 µM
CO[C@H]1/C=C/O[C@@]2(C)Oc3c(C)c(O)c4c(c3C2=O)C(=O)C(/C=N/N(c2ccccc2)c2ccccc2)=C(NC(=O)/C(C)=C\C=C\[C@H](C)[C@H](O)[C@@H](C)[C@@H](O)[C@@H](C)[C@H](OC(C)=O)[C@@H]1C)C4=O | 1.72 | 3.38 | 2.4 µM | 5.31 | 1.77 | 3.44 | 2.07 | 4.08 µM | 1.63 µM | 3.4 | 1.95 | 3.79 | 1.86 | 3.6 µM | 1.87 µM | 3.55 | 2.43 µM | 5.77 | 2.96 | 1.47 µM
CCc1cccc(C)c1NC(=O)c1sc2nc3c(cc2c1N)CCCCC3 |  |  | 2.36 µM | 14.1 | 3.52 | 26.6 | 12.4 | 85.8 µM | 3.17 µM | > 100 | 5.3 | 91.5 | 3.27 | > 100 µM | 13.4 µM | > 100 | 2.27 µM | 54 | > 100 | 3.58 µM
O=C(CO[N+](=O)[O-])Nc1ccc(C(=O)/C=C/c2ccc(Cl)cc2)cc1 | 11.8 | 54.5 | 3.87 µM | > 100 | 12.7 | 54.9 | 1.75 | 3.64 µM | 2.03 µM | 6.53 | 1.59 | 3.51 | 9.69 | 23.3 µM | 8.37 µM | 25.1 | 3.65 µM | > 100 | 1.09 | 0.298 µM
Nc1ccc(C2=NN(c3ccccc3)C(c3ccc(Cl)cc3)C2)cc1 (stereo unspecified) | 3.21 | 14 | 3.64 µM | 19.4 | 3.94 | 16.3 | 1.86 | 3.29 µM | 2.62 µM | 7.9 | 1.66 | 3.05 |  |  | 2.13 µM | 6.16 | 1.71 µM | 4.27 | 3.01 | 1.64 µM
Cn1cc(C2=C(c3cn(CCCCN)c4ccccc34)C(=O)NC2=O)c2ccccc21 | > 25 | > 25 | > 25 µM | > 25 | > 25 | > 25 | > 25 | > 25 µM | > 25 µM | > 25 | > 25 | > 25 | > 25 | > 25 µM | > 25 µM | > 25 | > 25 µM | > 25 | > 25 | > 25 µM
O=C(CP(=O)(O)O)NC(CC(=O)OCc1ccccc1)C(=O)OCc1ccccc1 (stereo unspecified) |  | > 100 |  | > 100 |  | > 100 |  | > 100 µM |  | > 100 |  |  |  | > 100 µM |  |  |  | > 100 | > 100 | 
CN(C)CCCOc1ccc(-c2ccc3ncc4c(c3c2)n(C2CCOCC2)c(=O)n4C)cn1 |  |  | 3.86 µM | 21.9 | 0.94 | 15.5 | 2.51 | 15.6 µM | 3.08 µM | 18 | 1.13 | 6.51 | 1.47 | 6.21 µM | 0.286 µM | 2.91 | 3.01 µM | 15.6 | 16.6 | 3.12 µM
CN[C@H]1C=C[C@@H]2/C=C(C)/C=C/[C@@H](C)[C@H]([C@H](C)[C@H](O)[C@@H](C)NC(C)=O)OC(=O)/C=C/C=C(C)\C=C\[C@]2(C)C1 |  |  | 0.44 µM and 0.347 µM | > 49 | 0.0107 | > 49 | 5.5 | > 49 µM | 0.0906 µM and 0.0814 µM | > 49 | 0.0049 | 0.00504 |  | 27.9 µM | 0.0611 µM and 0.259 µM | > 49 | < 0.001 µM and 0.0049 µM | > 49 | 40.4 | < 0.001 µM and 0.0049 µM
COC(=O)[C@@H](C)C[C@H](Cc1ccccc1)NC(=O)c1csc(CC[C@H](C(C)C)N(C)C(=O)[C@@H](NC(=O)[C@H]2CCCCN2C)C(C)C)n1 |  |  | 3.46 µM | > 33.3 | 0.381 | > 14.5 | 0.562 | > 33.3 µM | 0.604 µM | > 33.3 | 0.373 | > 33.3 | 0.149 | > 33.3 µM | > 15.2 µM | > 33.3 | 0.0686 µM | > 33.3 | > 14.8 | 0.235 µM
CC[N+](CC)=c1sc2c(s1)C(c1ccc(Cl)cc1)Oc1ccc(Cl)cc1-2 (stereo unspecified) |  |  | 21.6 µM | 67.2 | 0.503 | 1.89 | 1.52 | 3.74 µM | 7.13 µM | 21.5 | 1.51 | 3.22 | 1.03 | 2.81 µM | 3.38 µM | 6.61 | 2.68 µM | 7.15 | 1.89 | 0.568 µM
COc1cccc(-c2nc3sccn3c2-c2ccnc(NCCCNS(=O)(=O)c3cccc(F)c3)c2)c1 |  |  | 2.09 µM | 6.41 | 4.04 | > 100 | 5.12 | > 100 µM | 2.63 µM | > 100 | 2.63 | 14.8 | 2.18 | 5.44 µM | 3.8 µM | 31.9 | 2.59 µM | > 100 | > 100 | 2.83 µM
